Measured values as given in ChEMBL document CHEMBL1121958, “A consideration for structure-taste correlations of perillartines using pattern-recognition techniques” (J Med Chem, 1982).

Test: Partition coefficient (logP)
Assay type: physicochemical
Conditions: octanol/water

O/N=C/C1=CC=CCC1
logP: 1.48

C=C(C)C1CC=C(/C=N/O)CC1 (configuration not stated)
logP: 2.58

COCC1CCC=C(/C=N/O)C1 (configuration not stated)
logP: 0.8

COC(C)C1CCC=C(/C=N/O)C1 (configuration not stated)
logP: 1.4

COC(C)C1=CCC(/C=N/O)=CC1 (configuration not stated)
logP: 1.1

O/N=C/C1=CCCOC1
logP: -0.72

COC(C)(CO)C1CC=C(/C=N/O)CC1 (configuration not stated)
logP: -0.1

O/N=C/C1=CCSCC1
logP: 0.34

COCC(C)(OC)C1CC=C(/C=N/O)CC1 (configuration not stated)
logP: 0.72

O/N=C/C1=CCOCC1
logP: -0.72

C=CC1CC=C(/C=N/O)CC1 (configuration not stated)
logP: 2.28

COCC(C)(O)C1CC=C(/C=N/O)CC1 (configuration not stated)
logP: -0.1

CC1=CC=C(/C=N/O)CC1
logP: 0.78

COC(C)C1=CC=C(/C=N/O)CC1 (configuration not stated)
logP: 1.1

C/C=C(C)/C=N/O
logP: 0.87

COCC1=CCC(/C=N/O)=CC1
logP: 0.8

COC(C)C1=CCC=C(/C=N/O)C1 (configuration not stated)
logP: 1.1

O/N=C/C1=CCCCC1
logP: 1.48

COC(C)C1CC=C(/C=N/O)CC1 (configuration not stated)
logP: 1.4

O/N=C/C1=CC2C=CC1CC2 (configuration not stated)
logP: 1.9

COCC1CC=C(/C=N/O)CC1 (configuration not stated)
logP: 1.1

CC(O)(CO)C1CC=C(/C=N/O)CC1 (configuration not stated)
logP: -0.92
